Read-outs that look alike come from different tables or passages of the source.

Test [1] concerns Zymoseptoria tritici. Nature of the test: Fungicidal activity: leaf blotch of wheat (SEPTTR), wheat seedlings, booth sprayer to run-off or track spray. Type of test: in vivo. Conditions: for pest or weed control at 121.5 g/ha: Low-Volume Cereal Activity at 121.5 g/H; for pest or weed control at 100 ppm: High-Volume Cereal Activity at 100 ppm. As to the method: All fungicides were evaluated using the aforementioned method for their activity vs. all target diseases. Wheat leaf blotch and brown rust activity were also evaluated using track spray applications, in which case the fungicides were formulated as EC formulations, containing 0.1% Trycol 5941 in the spray solutions. Wheat plants (variety Yuma) were grown from seed in a greenhouse in 50% mineral soil/50% soil-less Metro mix until the first leaf was fully emerged, with 7-10 seedlings per pot. These plants were inoculated with an aqueous spore suspension of Zymoseptoria tritici either prior to or after fungicide treatments. After inoculation the plants were kept in 100% relative humidity (one day in a dark dew chamber followed by two to three days in a lighted dew chamber at 20° C.) to permit spores to germinate and infect the leaf. The plants were then transferred to a greenhouse set at 20° C. for disease to develop. When disease symptoms were fully expressed on the 1st leaves of untreated plants, infection levels were assessed on a scale of 0 to 100 percent disease severity. Percent disease control was calculated using the ratio of disease severity on treated plants relative to untreated plants.

The test system of test [2] is Puccinia triticina. As to the kind of experiment: Fungicidal activity: wheat brown rust (PUCCRT), wheat seedlings, booth sprayer to run-off or track spray. The format is in vivo. Particulars: for pest or weed control at 121.5 g/ha: Low-Volume Cereal Activity at 121.5 g/H; for pest or weed control at 100 ppm: High-Volume Cereal Activity at 100 ppm. On the procedure:
All fungicides were evaluated using the aforementioned method for their activity vs. all target diseases. Wheat leaf blotch and brown rust activity were also evaluated using track spray applications, in which case the fungicides were formulated as EC formulations, containing 0.1% Trycol 5941 in the spray solutions. Wheat plants (variety Yuma) were grown from seed in a greenhouse in 50% mineral soil/50% soil-less Metro mix until the first leaf was fully emerged, with 7-10 seedlings per pot. These plants were inoculated with an aqueous spore suspension of Puccinia triticina either prior to or after fungicide treatments. […] The plants were then transferred to a greenhouse set at 24° C. for disease to develop. Fungicide formulation, application and disease assessment followed the procedures as described in the Example A.

Where [3] appears, read: 24 h, 1 Day Protectant, read-out: SEPTTR 1DP.
The mark [4] stands for this setting: 72 h, 3 Day Curative, read-out: SEPTTR 3DC.
The mark [5] stands for this setting: 24 h, 1 Day Protectant, read-out: PUCCRT 1DP.
The mark [6] stands for this setting: 72 h, 3 Day Curative, read-out: PUCCRT 3DC.
[7] abbreviates: 3DC (Day Curative), read-out: SEPTTR 3DC.
The mark [8] stands for this setting: 3DC (Day Curative), read-out: PUCCRT 3DC.

`COc1ccnc(C(=O)N[C@@H](C)C(=O)O[C@@H](C)[C@H](Cc2ccc(Cl)cc2)c2ccccc2)c1OC(=O)C(C)C` [compound 202]: the pest or weed control at 121.5 g/ha lay within 80 to 100% in test [1] (setting [3]), 80 to 100% in test [1] (setting [4]), 0 to 80% in test [2] (setting [5]) and 0 to 80% in test [2] (setting [6]).
Regarding `COc1ccnc(C(=O)N[C@@H](C)C(=O)OC(C)C(Cc2ccccc2)Cc2ccccc2)c1OCOC(C)=O` (some centres unmarked) [compound 265], the pest or weed control at 121.5 g/ha lay within 80 to 100% in test [1] (setting [3]), 0 to 80% in test [1] (setting [4]), 80 to 100% in test [2] (setting [5]) and 0 to 80% in test [2] (setting [6]).
For `COc1ccnc(C(=O)N[C@@H](C)C(=O)O[C@@H](C)[C@@H](COCc2ccccc2)Cc2ccccc2)c1OC(C)=O` [compound 227], the pest or weed control at 121.5 g/ha in test [1] (setting [3]) lay within 80 to 100%; in test [1] (setting [4]), 0 to 80%; in test [2] (setting [5]), 0 to 80%; in test [2] (setting [6]), 0 to 80%.
Turning to `CC[C@H](Cc1ccccc1)[C@@H](Cc1ccc(F)cc1)[C@H](C)OC(=O)[C@H](C)NC(=O)c1nccc(OC)c1O` [compound 103], the pest or weed control at 100 ppm in test [1] (setting [3]) lay in the range of 80 to 100%; in test [1] (setting [7]), 0 to 80%; in test [2] (setting [5]) it was 80 to 100%; in test [2] (setting [8]), 0 to 80%.
Consider `COc1ccnc(C(=O)N[C@@H](C)C(=O)O[C@@H](C)[C@@H](COCc2ccccc2)Cc2ccc(F)cc2)c1O` [compound 131], for which the pest or weed control at 100 ppm lay within 80 to 100% in test [1] (setting [3]), 0 to 80% in test [1] (setting [7]), 80 to 100% in test [2] (setting [5]) and 0 to 80% in test [2] (setting [8]).
For the compound `COc1ccnc(C(=O)N[C@@H](C)C(=O)O[C@@H](C)[C@@H](COCc2ccccc2)Cc2ccc(F)cc2)c1OCOC(C)=O` [compound 239], the pest or weed control at 121.5 g/ha fell in the range of 80 to 100% in test [1] (setting [3]), 0 to 80% in test [1] (setting [4]), 80 to 100% in test [2] (setting [5]) and 0 to 80% in test [2] (setting [6]).
With `COc1ccnc(C(=O)N[C@@H](C)C(=O)O[C@@H](C)[C@@H](COCc2ccccc2)Cc2ccc(F)cc2)c1OC(C)=O` [compound 228], the pest or weed control at 121.5 g/ha in test [1] (setting [3]) is 80 to 100%; in test [1] (setting [4]) it was 0 to 80%; in test [2] (setting [5]), 0 to 80%; in test [2] (setting [6]) it was 0 to 80%.
With `COc1ccnc(C(=O)N[C@@H](C)C(=O)O[C@@H](C)[C@H](Cc2ccc3ccccc3c2)c2ccccc2)c1O` [compound 130], the pest or weed control at 100 ppm was 80 to 100% in test [1] (setting [3]), 0 to 80% in test [1] (setting [7]) and 80 to 100% in test [2] (setting [5]).
Take `CC[C@H](Cc1ccc(C(F)(F)F)cc1)[C@@H](Cc1ccc(F)cc1)[C@H](C)OC(=O)[C@H](COC)NC(=O)c1nccc(OC)c1OC(C)=O` [compound 181]: the pest or weed control at 121.5 g/ha lay in the range of 0 to 80% in test [1] (setting [3]), 0 to 80% in test [1] (setting [4]), 80 to 100% in test [2] (setting [5]) and 0 to 80% in test [2] (setting [6]).
For `CC[C@H](NC(=O)c1nccc(OC)c1OCOC(C)=O)C(=O)OC(C)C(Cc1ccccc1)Cc1ccccc1` (some centres unmarked) [compound 269], the pest or weed control at 121.5 g/ha in test [1] (setting [3]) lay in the range of 80 to 100%; in test [1] (setting [4]), 80 to 100%; in test [2] (setting [5]) it was 80 to 100%; in test [2] (setting [6]), 0 to 80%.
For `COc1ccnc(C(=O)N[C@@H](C)C(=O)O[C@@H](C)[C@H](Cc2ccc(F)cc2)C(C)(C)OC)c1OC(C)=O` [compound 232], the pest or weed control at 121.5 g/ha in test [1] (setting [3]), in test [1] (setting [4]) and in test [2] (setting [5]) was 0 to 80% in each case.
On to `COc1ccnc(C(=O)N[C@@H](C)C(=O)O[C@@H](C)[C@H](CCC(C)C)c2ccccc2)c1OCOC(C)=O` [compound 213], for which the pest or weed control at 121.5 g/ha in test [1] (setting [3]), in test [1] (setting [4]), in test [2] (setting [5]) and in test [2] (setting [6]) was 80 to 100% each time.
In the case of `CC[C@H](NC(=O)c1nccc(OC)c1OC(C)=O)C(=O)O[C@@H](C)C(Cc1cccc(OC)c1)Cc1cccc(OC)c1` [compound 271], the pest or weed control at 121.5 g/ha in test [1] (setting [3]) and in test [2] (setting [5]) was 0 to 80% throughout.
For the compound `CCCOC(C)(C)[C@@H](Cc1ccc(OC)c(Cc2ccccc2)c1)[C@H](C)OC(=O)[C@H](C)NC(=O)c1nccc(OC)c1O` [compound 146], the pest or weed control at 100 ppm in test [1] (setting [3]), in test [1] (setting [7]) and in test [2] (setting [5]) was 0 to 80% in each case.
As to `CCCO[C@H](CC)[C@@H](Cc1ccccc1)[C@H](C)OC(=O)[C@H](C)NC(=O)c1nccc(OC)c1O` [compound 92], the pest or weed control at 100 ppm in test [1] (setting [3]), in test [1] (setting [7]), in test [2] (setting [5]) and in test [2] (setting [8]) was 80 to 100% throughout.
Regarding `COc1ccnc(C(=O)N[C@@H](C)C(=O)O[C@@H](C)[C@H](Cc2ccc(C)cc2)c2ccccc2)c1OCOC(C)=O` [compound 221], the pest or weed control at 121.5 g/ha lay in the range of 80 to 100% in test [1] (setting [3]), 80 to 100% in test [1] (setting [4]), 80 to 100% in test [2] (setting [5]) and 0 to 80% in test [2] (setting [6]).
Regarding `COc1ccnc(C(=O)N[C@@H](C)C(=O)O[C@@H](C)[C@H](Cc2ccc(C)cc2)c2ccccc2)c1OC(C)=O` [compound 220], the pest or weed control at 121.5 g/ha in test [1] (setting [3]) was 80 to 100%; in test [1] (setting [4]), 80 to 100%; in test [2] (setting [5]) it was 0 to 80%; in test [2] (setting [6]) it was 0 to 80%.
As for `CCCO[C@H](CC)[C@@H](Cc1ccccc1)[C@H](C)OC(=O)[C@@H](C)NC(=O)c1nccc(OC)c1O` [compound 96], the pest or weed control at 100 ppm is 80 to 100% in test [1] (setting [3]), 0 to 80% in test [1] (setting [7]), 80 to 100% in test [2] (setting [5]) and 80 to 100% in test [2] (setting [8]).
For `COc1ccnc(C(=O)N[C@@H](C)C(=O)OC(C)C(Cc2ccc(F)cc2)Cc2ccc(F)cc2)c1O` (some centres unmarked) [compound 151], the pest or weed control at 100 ppm in test [1] (setting [3]) and in test [2] (setting [5]) was 80 to 100% throughout.
With `COc1ccnc(C(=O)N[C@@H](C)C(=O)O[C@@H](C)[C@H](Cc2ccc3ccccc3c2)c2ccccc2)c1OCOC(C)=O` [compound 225], the pest or weed control at 121.5 g/ha in test [1] (setting [3]), in test [1] (setting [4]), in test [2] (setting [5]) and in test [2] (setting [6]) was 0 to 80% in each case.
As for `COc1ccnc(C(=O)N[C@@H](C)C(=O)O[C@@H](C)[C@H](Cc2ccccc2)c2ccccc2)c1OCOC(C)=O` [compound 195], the pest or weed control at 121.5 g/ha in test [1] (setting [3]), in test [1] (setting [4]), in test [2] (setting [5]) and in test [2] (setting [6]) was 80 to 100% in each case.
Take `COc1ccnc(C(=O)N[C@@H](C)C(=O)O[C@@H](C)[C@@H](COCCC(C)C)Cc2ccccc2)c1O` [compound 141]: the pest or weed control at 100 ppm in test [1] (setting [3]) lay within 80 to 100%; in test [1] (setting [7]), 0 to 80%; in test [2] (setting [5]), 0 to 80%; in test [2] (setting [8]), 0 to 80%.
As for `COc1ccnc(C(=O)N[C@@H](C)C(=O)O[C@@H](C)[C@H](Cc2ccc(Cl)c(Cl)c2)c2ccccc2)c1OC(C)=O` [compound 216], the pest or weed control at 121.5 g/ha lay within 80 to 100% in test [1] (setting [3]), 0 to 80% in test [1] (setting [4]), 0 to 80% in test [2] (setting [5]) and 0 to 80% in test [2] (setting [6]).
As to `COCCC(=O)Oc1c(OC)ccnc1C(=O)N[C@@H](C)C(=O)O[C@@H](C)[C@H](CCC(C)C)c1ccccc1` [compound 212], the pest or weed control at 121.5 g/ha in test [1] (setting [3]), in test [1] (setting [4]), in test [2] (setting [5]) and in test [2] (setting [6]) was 80 to 100% throughout.
Turning to `COc1ccnc(C(=O)N[C@@H](C)C(=O)O[C@@H](C)[C@H](Cc2ccccc2)C(C)(C)OC)c1OCOC(C)=O` [compound 245], the pest or weed control at 121.5 g/ha in test [1] (setting [4]) lay in the range of 0 to 80%; in test [2] (setting [5]), 80 to 100%; in test [2] (setting [6]), 80 to 100%.
For the compound `CC[C@H](NC(=O)c1nccc(OC)c1O)C(=O)O[C@@H](C)C(Cc1cccc(OC)c1)Cc1cccc(OC)c1` [compound 153], the values for the pest or weed control at 100 ppm in test [1] (setting [3]), in test [1] (setting [7]) and in test [2] (setting [5]) were 0 to 80%, 0 to 80% and 80 to 100%, respectively.

Source of the values: patent US10173971B2, “Picolinamides with fungicidal activity” (DOW AGROSCIENCES LLC, priority 2014, dated 2019).
